Experimental data reported in patent US20230093766A1, “COMPOSITIONS AND METHODS FOR COATING BONE GRAFTS” (BOARD OF REGENTS OF THE UNIVERSITY OF NEBRASKA, priority 2020, published 2023).

Columns and labels:
receptors of BMPs = settings: cited from earlier work
[1] = BMP-2 peptide loading and in vitro release from electrospray-coated bone allografts; type: physicochemical; settings: from PLGA 50:50 coated allograft, during the first 4 weeks
Protocol: For quantification of peptide loading and release kinetics, 5 mg FITC labeled BMP-2 peptide was dispersed in 5% (w/v) of PLGA in DCM in glass vials and used for electrospray-mediated allograft coating. The amount of BMP-2 peptide loaded per graft was calculated from the difference in the weights of the bone samples before and after electrospray coating as well as accounting for the polymer:peptide ratio of 50:1 (Boda, et al. (2019) Acta Biomater., 85:282-93). The duration of the electrospray coating was adjusted to achieve an increase of 2-3 mg in the weights of the electrospray coated bone samples as compared to the corresponding uncoated ones. The FITC-labeled peptide release from the bone allograft was recorded by measuring the fluorescence intensities of the buffer aliquots at regular intervals using excitation and emission filters of 485 and 528 nm, respectively.
Similarly, to measure the peptide loading and release kinetics from PCL-gelatin coated allografts, the PCL-gelatin HFIP solution containing 5 mg FITC labeled BMP-2 peptide was used for coating. PCL-Gelatin (2.5 wt % each) and 5 mg of BMP-2 peptide were mixed by ultrasonication. […] The peptide release from the PCL-gelatin bone allograft was recorded by measuring the fluorescence intensities of the buffer aliquots at regular intervals (Boda, et al. (2019) Acta Biomater., 85:282-93). […]

BMP type I receptor ALK3 = BMP type I receptor ALK3 (Homo sapiens, UniProt P36894); settings: cited from earlier work
Chain of BMP type I receptor ALK3 (P36894 24-532): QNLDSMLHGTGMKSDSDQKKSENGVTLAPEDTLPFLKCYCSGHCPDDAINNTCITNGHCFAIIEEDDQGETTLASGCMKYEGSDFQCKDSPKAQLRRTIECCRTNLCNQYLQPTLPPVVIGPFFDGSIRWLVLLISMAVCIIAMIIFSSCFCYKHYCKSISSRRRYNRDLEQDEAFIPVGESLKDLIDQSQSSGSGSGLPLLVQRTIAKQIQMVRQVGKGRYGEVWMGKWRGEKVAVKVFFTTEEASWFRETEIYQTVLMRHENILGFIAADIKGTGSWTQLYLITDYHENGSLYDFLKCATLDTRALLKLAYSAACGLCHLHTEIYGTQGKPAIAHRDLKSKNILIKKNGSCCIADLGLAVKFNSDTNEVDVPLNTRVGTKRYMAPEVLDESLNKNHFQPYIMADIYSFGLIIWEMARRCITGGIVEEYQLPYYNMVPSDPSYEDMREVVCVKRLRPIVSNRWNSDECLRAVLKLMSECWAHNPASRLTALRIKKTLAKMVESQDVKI

normal cells and tissues = settings: cited from earlier work
[2] = system: periosteal progenitor cells isolated from autograft periosteum; experiment: Osteogenic differentiation of periosteal progenitor cells, BMP-2 in combination with TGF-β inhibitor; type: cell-based
Protocol: To test the potential reciprocal regulation of both BMP and TGF-β signaling in repair, periosteal progenitor cells were isolated from autograft periosteum (Wang, et al. (2010) Am. J. Pathol., 177:3100-3111; Huang, et al. (2014) Mol. Ther., 22:430-439; Huang, et al. (2014) PLoS One, 9:e100079). The osteogenic differentiation of BMP-2 ([…]) in combination with TGF-β inhibitors was examined. Corilagin (1 μm) potentiated the effects of BMP-2 on osteoblastic differentiation as evidenced by increased alkaline phosphatase (ALP) staining and enhanced expression of ALP and osterix (Osx) in 10-day cultures (FIG. 7).

Tgfbrl/ALK5 kinase = target: T1, Tgfbrl/ALK5 kinase (Homo sapiens, UniProt P36897); settings: cited from earlier work
T1 sequence (P36897 34-503): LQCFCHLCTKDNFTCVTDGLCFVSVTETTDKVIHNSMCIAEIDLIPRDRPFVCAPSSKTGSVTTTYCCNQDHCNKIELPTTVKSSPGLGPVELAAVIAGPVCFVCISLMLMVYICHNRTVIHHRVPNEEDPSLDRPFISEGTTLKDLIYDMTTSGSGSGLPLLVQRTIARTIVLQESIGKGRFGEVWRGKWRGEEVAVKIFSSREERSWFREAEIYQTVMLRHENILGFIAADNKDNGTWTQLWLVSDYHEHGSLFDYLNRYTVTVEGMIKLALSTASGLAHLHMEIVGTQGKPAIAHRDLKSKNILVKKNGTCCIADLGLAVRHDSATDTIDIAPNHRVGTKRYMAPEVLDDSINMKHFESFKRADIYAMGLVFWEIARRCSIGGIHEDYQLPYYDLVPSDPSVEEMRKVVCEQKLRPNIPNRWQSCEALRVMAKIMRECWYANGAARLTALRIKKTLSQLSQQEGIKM

fibrosis in lung = settings: mouse model; cited from earlier work
BMP type I receptor ALK2 = target: T2, BMP type I receptor ALK2 (Homo sapiens, UniProt Q04771); settings: cited from earlier work
T2 sequence (Q04771 21-509): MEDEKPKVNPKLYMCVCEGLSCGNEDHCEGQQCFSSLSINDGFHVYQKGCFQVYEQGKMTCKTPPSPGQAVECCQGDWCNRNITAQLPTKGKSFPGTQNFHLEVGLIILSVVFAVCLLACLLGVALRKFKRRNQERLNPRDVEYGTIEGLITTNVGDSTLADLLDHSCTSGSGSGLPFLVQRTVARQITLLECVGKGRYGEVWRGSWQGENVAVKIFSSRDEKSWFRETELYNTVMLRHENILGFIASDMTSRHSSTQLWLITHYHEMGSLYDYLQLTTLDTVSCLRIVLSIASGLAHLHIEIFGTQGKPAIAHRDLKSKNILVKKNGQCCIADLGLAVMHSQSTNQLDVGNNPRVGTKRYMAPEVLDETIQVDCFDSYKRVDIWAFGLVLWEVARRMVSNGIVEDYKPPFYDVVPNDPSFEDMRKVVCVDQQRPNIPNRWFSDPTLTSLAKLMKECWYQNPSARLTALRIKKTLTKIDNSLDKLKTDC

BMP type I receptor ALK6 = BMP type I receptor ALK6 (Homo sapiens, UniProt O00238); settings: cited from earlier work
Chain of BMP type I receptor ALK6 (O00238 14-502): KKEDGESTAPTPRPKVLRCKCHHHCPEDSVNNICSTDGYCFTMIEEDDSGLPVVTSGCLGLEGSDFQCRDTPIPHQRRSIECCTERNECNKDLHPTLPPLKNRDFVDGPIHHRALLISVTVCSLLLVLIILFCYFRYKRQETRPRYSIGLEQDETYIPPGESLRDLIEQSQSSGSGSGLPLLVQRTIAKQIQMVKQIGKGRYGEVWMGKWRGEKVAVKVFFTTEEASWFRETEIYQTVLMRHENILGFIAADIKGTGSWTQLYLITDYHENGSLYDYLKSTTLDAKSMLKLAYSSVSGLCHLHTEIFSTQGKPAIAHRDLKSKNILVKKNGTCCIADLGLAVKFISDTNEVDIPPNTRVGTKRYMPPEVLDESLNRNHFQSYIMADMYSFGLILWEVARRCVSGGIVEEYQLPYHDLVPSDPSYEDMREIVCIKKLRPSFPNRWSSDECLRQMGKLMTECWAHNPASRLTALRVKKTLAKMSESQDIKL

[3] = system: TGF-β-dependent epithelial-mesenchymal transition (EMT); settings: cited from earlier work
[4] = Corilagin (1 μm) with BMP-2 (50 μg/ml), 10-day cultures

| Compound | binding and activation of the receptors of BMPs (receptors of BMPs) | loaded peptide released [1] | inhibition of BMP type I receptor ALK3 (BMP type I receptor ALK3) | toxicity toward normal cells and tissues (normal cells and tissues) | alkaline phosphatase (ALP) staining [2, 4] | effects of BMP-2 on osteoblastic differentiation [2, 4] | expression of ALP [2, 4] | expression of osterix (Osx) [2, 4] | synergism with BMP-2 ([2]; FIG. 7, ALP and Osx expression after 10 days) | Tgfbrl/ALK5 kinase activity (Tgfbrl/ALK5 kinase) | fibrosis in lung (fibrosis in lung) | inhibition of BMP type I receptor ALK2 (BMP type I receptor ALK2) | inhibition of BMP type I receptor ALK6 (BMP type I receptor ALK6) | TGF-β-dependent epithelial-mesenchymal transition (EMT) [3] |
| --- | --- | --- | --- | --- | --- | --- | --- | --- | --- | --- | --- | --- | --- | --- |
| KIPKASSVPTELSAISTLYL (BMP-2 peptide) [short-chain BMP-2 mimetic peptide (Genscript)] | binds and activates | Nearly all | – | – | – | – | – | – | – | – | – | – | – | – |
| O=C(O[C@@H]1O[C@@H]2COC(=O)c3cc(O)c(O)c(O)c3-c3c(cc(O)c(O)c3O)C(=O)O[C@H]([C@H]1O)[C@@H]2O)c1cc(O)c(O)c(O)c1 [Corilagin] | – | – | without inhibiting | low level | increased | potentiated | enhanced | enhanced | strong synergism | strongly inhibits | attenuates | without inhibiting | without inhibiting | inhibits |
